{
  "source": "paper PMC9817970",
  "about": "(Cancers, 2022)",
  "system": "GIST-T1 cells",
  "assay": "Migration (wound healing) assay",
  "format": "cell-based, human",
  "conditions": "GIST-T1, 0.005 μM and 0.05 μM, 36 h",
  "description": "GIST-T1 cells were seeded in 6-well plates at 2 × 10^6 cells. Next day, cells were washed with PBS and wounded in the center of each well. Then, GIST-T1 cells were washed with PBS and added to fresh DMEM.",
  "data": [
    {"compound": "Cc1ccc(NC(=O)c2ccc(CN3CCN(C)CC3)c(C(F)(F)F)c2)cc1-c1cnc2sc(N)nc2c1", "note": "[6r]", "values": [
      {"measurement": "cell migration decreased compared to control", "value": "50–70%"}
    ]}
  ]
}
